Measurements as given in ChEMBL document CHEMBL4879553, “Data for DCP probe BAY1125976” (2021).
Each block holds one molecule with its values, some of them ahead of it. The source made the active and inactive calls. The calls are words filed in the database; no cut-off is given here.

Assays:
[1] = NanoBRET (AKT1); conditions: Homo sapiens
[2] = target: RAC-gamma serine/threonine-protein kinase (Homo sapiens, UniProt Q9Y243); assay: NanoBRET (AKT3)
[3] = target: Sodium-dependent serotonin transporter (Homo sapiens) (UniProt P31645); conditions: Compound concentration 10.0 uM
[4] = target: GABA-A receptor; anion channel (Rattus norvegicus) (UniProt O09028+P15431+P18506+P18508+P19969+P20236+P23574+P23576+P28471+P28473+P30191+P62813+P63079+P63138+Q91ZM7+Q9ES14); conditions: Compound concentration 10.0 uM
[5] = target: Alpha-1A adrenergic receptor (Homo sapiens) (UniProt P35348); conditions: Compound concentration 10.0 uM
[6] = target: Sigma intracellular receptor 2 (Homo sapiens) (UniProt Q5BJF2); conditions: Compound concentration 10.0 uM
[7] = target: D(3) dopamine receptor (Homo sapiens) (UniProt P35462); conditions: Compound concentration 10.0 uM
[8] = target: Alpha-1D adrenergic receptor (Homo sapiens) (UniProt P25100); conditions: Compound concentration 10.0 uM
[9] = target: 5-hydroxytryptamine receptor 1B (Homo sapiens) (UniProt P28222); conditions: Compound concentration 10.0 uM
[10] = target: Beta-2 adrenergic receptor (Homo sapiens) (UniProt P07550); conditions: Compound concentration 10.0 uM
[11] = target: Histamine H1 receptor (Homo sapiens) (UniProt P35367); conditions: Compound concentration 10.0 uM
[12] = target: Muscarinic acetylcholine receptor M5 (Homo sapiens) (UniProt P08912); conditions: Compound concentration 10.0 uM
[13] = target: Sigma non-opioid intracellular receptor 1 (Homo sapiens) (UniProt Q99720); conditions: Compound concentration 10.0 uM
[14] = target: 5-hydroxytryptamine receptor 7 (Homo sapiens) (UniProt P34969); conditions: Compound concentration 10.0 uM
[15] = target: 5-hydroxytryptamine receptor 1A (Homo sapiens) (UniProt P08908); conditions: Compound concentration 10.0 uM
[16] = Mechanistic cell assay: Inhibition of activation by phosphorylation (4EBPI-T70); conditions: Homo sapiens
[17] = target: Alpha-2A adrenergic receptor (Homo sapiens) (UniProt P08913); conditions: Compound concentration 10.0 uM
[18] = Mechanistic cell assay: Blocking of the activation of the downstream signaling molecule 4EBP1 by phosphorylation at mTOR substrate T70; set-up: species or system Homo sapiens
[19] = target: Alpha-2C adrenergic receptor (Homo sapiens) (UniProt P18825); conditions: Compound concentration 10.0 uM
[20] = target: 5-hydroxytryptamine receptor 2A (Homo sapiens) (UniProt P28223); conditions: Compound concentration 10.0 uM
[21] = target: Kappa-type opioid receptor (Homo sapiens) (UniProt P41145); conditions: Compound concentration 10.0 uM
[22] = target: Muscarinic acetylcholine receptor M2 (Homo sapiens) (UniProt P08172); conditions: Compound concentration 10.0 uM
[23] = Mechanistic cell assay: Inhibition of phosphorylation (4EBPI-T70); conditions: Homo sapiens
[24] = target: Muscarinic acetylcholine receptor M1 (Homo sapiens) (UniProt P11229); conditions: Compound concentration 10.0 uM
[25] = target: 5-hydroxytryptamine receptor 2C (Homo sapiens) (UniProt P28335); conditions: Compound concentration 10.0 uM
[26] = target: Beta-1 adrenergic receptor (Homo sapiens) (UniProt P08588); conditions: Compound concentration 10.0 uM
[27] = target: D(1B) dopamine receptor (Homo sapiens) (UniProt P21918); conditions: Compound concentration 10.0 uM
[28] = target: Histamine H2 receptor (Homo sapiens) (UniProt P25021); conditions: Compound concentration 10.0 uM
[29] = Mechanistic cell assay: Reduction of the basal levels of AKT phosphorylation in KPL-4 cells at S473; assay type: cell-based; conditions: Homo sapiens, KPL4
[30] = target: Sodium-dependent noradrenaline transporter (Homo sapiens) (UniProt P23975); conditions: Compound concentration 10.0 uM
[31] = target: 5-hydroxytryptamine receptor 6 (Homo sapiens) (UniProt P50406); conditions: Compound concentration 10.0 uM
[32] = target: 5-hydroxytryptamine receptor 3A (Homo sapiens) (UniProt P46098); conditions: Compound concentration 10.0 uM
[33] = target: Alpha-1B adrenergic receptor (Homo sapiens) (UniProt P35368); conditions: Compound concentration 10.0 uM
[34] = target: Muscarinic acetylcholine receptor M1 (Homo sapiens, UniProt P11229); assay: GPCRScan assay: inhibition of M1; set-up: radioligand conc. used [nm] 0.3 – 1.2, parental cells stable CHO
[35] = target: Mu-type opioid receptor (Homo sapiens) (UniProt P35372); conditions: Compound concentration 10.0 uM
[36] = target: D(4) dopamine receptor (Homo sapiens) (UniProt P21917); conditions: Compound concentration 10.0 uM
[37] = Mechanistic cell assay: inhibition of PRAS40 phosphorylation at T246; conditions: Homo sapiens
[38] = Mechanistic cell assay: Inhibition of phosphorylation (AKT1-S473); conditions: Homo sapiens
[39] = target: Muscarinic acetylcholine receptor M3 (Homo sapiens) (UniProt P20309); conditions: Compound concentration 10.0 uM
[40] = target: D(1A) dopamine receptor (Homo sapiens) (UniProt P21728); conditions: Compound concentration 10.0 uM
[41] = target: Histamine H3 receptor (Homo sapiens) (UniProt Q9Y5N1); conditions: Compound concentration 10.0 uM
[42] = target: 5-hydroxytryptamine receptor 5A (Homo sapiens) (UniProt P47898); conditions: Compound concentration 10.0 uM
Rattus norvegicus = species: Rattus norvegicus; conditions: Compound concentration 10.0 uM
[43] = target: Alpha-2B adrenergic receptor (Homo sapiens) (UniProt P18089); conditions: Compound concentration 10.0 uM
[44] = target: Muscarinic acetylcholine receptor M4 (Homo sapiens) (UniProt P08173); conditions: Compound concentration 10.0 uM
[45] = Mechanistic cell assay: Inhibition of activation by phosphorylation (AKT1-S473); conditions: Homo sapiens
[46] = target: Delta-type opioid receptor (Homo sapiens) (UniProt P41143); conditions: Compound concentration 10.0 uM
[47] = target: Sodium-dependent dopamine transporter (Homo sapiens) (UniProt Q01959); conditions: Compound concentration 10.0 uM
[48] = target: D(2) dopamine receptor (Homo sapiens) (UniProt P14416); conditions: Compound concentration 10.0 uM
[49] = Mechanistic cell assay: Inhibition of phosphorylation (T308); conditions: Homo sapiens
[50] = target: 5-hydroxytryptamine receptor 1D (Homo sapiens) (UniProt P28221); conditions: Compound concentration 10.0 uM
[51] = Mechanistic cell assay: Reduction of the basal levels of AKT phosphorylation in KPL-4 cells at T308; assay type: cell-based; conditions: Homo sapiens, KPL4
[52] = target: 5-hydroxytryptamine receptor 2B (Homo sapiens) (UniProt P41595); conditions: Compound concentration 10.0 uM
[53] = NanoBRET (AKT2); conditions: Homo sapiens
[54] = target: Beta-3 adrenergic receptor (Homo sapiens) (UniProt P13945); conditions: Compound concentration 10.0 uM

Muscarinic acetylcholine receptor M1, sequence (P11229 whole entry): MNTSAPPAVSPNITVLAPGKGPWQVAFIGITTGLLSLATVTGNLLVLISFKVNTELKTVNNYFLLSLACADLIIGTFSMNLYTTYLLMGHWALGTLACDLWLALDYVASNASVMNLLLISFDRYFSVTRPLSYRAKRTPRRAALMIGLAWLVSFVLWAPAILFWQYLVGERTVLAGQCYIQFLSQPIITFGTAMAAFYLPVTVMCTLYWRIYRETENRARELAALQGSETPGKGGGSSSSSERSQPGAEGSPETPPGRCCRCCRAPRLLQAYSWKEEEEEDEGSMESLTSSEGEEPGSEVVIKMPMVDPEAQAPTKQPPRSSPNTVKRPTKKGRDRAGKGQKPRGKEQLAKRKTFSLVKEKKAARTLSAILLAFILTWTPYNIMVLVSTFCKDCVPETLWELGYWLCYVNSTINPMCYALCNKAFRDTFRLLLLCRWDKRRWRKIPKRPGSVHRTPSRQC
Alpha-1B adrenergic receptor (Homo sapiens), sequence (P35368 whole entry): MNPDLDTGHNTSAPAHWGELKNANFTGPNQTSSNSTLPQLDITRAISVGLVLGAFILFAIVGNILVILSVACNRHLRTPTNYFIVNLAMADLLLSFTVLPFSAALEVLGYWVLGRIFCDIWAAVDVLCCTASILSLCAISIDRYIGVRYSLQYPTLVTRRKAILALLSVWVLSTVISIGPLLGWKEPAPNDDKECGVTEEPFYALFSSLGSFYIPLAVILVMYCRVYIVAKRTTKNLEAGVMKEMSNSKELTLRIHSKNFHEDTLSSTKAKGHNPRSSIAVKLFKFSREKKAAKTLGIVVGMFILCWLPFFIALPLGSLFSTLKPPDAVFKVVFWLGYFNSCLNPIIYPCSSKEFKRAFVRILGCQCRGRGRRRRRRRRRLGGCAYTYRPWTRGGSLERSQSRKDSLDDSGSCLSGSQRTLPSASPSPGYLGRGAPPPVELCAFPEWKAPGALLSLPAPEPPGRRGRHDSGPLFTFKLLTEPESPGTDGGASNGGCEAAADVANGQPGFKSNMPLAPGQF
5-hydroxytryptamine receptor 2B (Homo sapiens), sequence (P41595 whole entry): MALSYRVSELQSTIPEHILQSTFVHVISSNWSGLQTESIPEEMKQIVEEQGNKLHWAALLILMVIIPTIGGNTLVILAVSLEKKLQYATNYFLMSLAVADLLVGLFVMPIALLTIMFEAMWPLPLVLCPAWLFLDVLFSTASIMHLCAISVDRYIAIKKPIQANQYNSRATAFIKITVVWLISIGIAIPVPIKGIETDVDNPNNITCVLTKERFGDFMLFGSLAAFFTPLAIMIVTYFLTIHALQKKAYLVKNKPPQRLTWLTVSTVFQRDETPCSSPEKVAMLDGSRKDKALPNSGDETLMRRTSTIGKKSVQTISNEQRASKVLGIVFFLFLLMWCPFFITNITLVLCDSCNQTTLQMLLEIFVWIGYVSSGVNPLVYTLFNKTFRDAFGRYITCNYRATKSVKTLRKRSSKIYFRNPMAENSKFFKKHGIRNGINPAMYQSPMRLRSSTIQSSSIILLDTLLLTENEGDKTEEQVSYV
Muscarinic acetylcholine receptor M4 (Homo sapiens), sequence (P08173 whole entry): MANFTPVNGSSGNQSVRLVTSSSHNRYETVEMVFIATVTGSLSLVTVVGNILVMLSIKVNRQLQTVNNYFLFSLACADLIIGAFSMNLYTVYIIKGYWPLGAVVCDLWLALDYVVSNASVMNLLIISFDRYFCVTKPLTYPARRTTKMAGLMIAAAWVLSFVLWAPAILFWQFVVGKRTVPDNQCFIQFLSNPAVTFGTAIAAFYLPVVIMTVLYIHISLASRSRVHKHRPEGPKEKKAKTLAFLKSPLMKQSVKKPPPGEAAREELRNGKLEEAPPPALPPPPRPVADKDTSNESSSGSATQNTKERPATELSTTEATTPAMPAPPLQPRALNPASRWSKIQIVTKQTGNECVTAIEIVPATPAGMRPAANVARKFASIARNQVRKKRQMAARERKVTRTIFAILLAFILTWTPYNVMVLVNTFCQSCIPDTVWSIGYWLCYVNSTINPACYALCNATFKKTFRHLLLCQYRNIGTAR
Alpha-2A adrenergic receptor (Homo sapiens), sequence (P08913 whole entry): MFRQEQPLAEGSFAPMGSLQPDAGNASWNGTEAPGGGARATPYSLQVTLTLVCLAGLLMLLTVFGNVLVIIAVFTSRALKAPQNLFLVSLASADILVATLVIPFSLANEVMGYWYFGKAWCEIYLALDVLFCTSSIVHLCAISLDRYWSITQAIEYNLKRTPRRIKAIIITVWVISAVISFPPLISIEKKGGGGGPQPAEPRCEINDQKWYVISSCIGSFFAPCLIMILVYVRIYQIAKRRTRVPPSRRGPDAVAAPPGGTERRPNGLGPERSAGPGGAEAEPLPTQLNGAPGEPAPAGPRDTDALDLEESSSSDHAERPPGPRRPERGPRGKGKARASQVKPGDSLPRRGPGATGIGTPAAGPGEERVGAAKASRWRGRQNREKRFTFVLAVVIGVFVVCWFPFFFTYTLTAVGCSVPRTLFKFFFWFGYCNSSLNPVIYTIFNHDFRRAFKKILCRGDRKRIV
Alpha-2C adrenergic receptor (Homo sapiens), sequence (P18825 whole entry): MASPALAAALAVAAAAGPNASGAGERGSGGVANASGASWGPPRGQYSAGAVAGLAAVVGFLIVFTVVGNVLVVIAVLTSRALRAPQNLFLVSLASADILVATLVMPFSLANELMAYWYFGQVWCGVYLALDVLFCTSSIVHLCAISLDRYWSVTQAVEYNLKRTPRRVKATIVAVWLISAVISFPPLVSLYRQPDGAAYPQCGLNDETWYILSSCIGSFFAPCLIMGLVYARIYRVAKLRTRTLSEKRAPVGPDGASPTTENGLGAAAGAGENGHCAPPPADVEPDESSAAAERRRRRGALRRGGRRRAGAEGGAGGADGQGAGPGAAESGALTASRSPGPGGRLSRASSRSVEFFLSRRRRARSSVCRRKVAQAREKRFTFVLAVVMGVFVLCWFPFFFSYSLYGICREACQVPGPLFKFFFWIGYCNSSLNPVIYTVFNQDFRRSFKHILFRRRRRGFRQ
Mu-type opioid receptor (Homo sapiens), sequence (P35372 whole entry): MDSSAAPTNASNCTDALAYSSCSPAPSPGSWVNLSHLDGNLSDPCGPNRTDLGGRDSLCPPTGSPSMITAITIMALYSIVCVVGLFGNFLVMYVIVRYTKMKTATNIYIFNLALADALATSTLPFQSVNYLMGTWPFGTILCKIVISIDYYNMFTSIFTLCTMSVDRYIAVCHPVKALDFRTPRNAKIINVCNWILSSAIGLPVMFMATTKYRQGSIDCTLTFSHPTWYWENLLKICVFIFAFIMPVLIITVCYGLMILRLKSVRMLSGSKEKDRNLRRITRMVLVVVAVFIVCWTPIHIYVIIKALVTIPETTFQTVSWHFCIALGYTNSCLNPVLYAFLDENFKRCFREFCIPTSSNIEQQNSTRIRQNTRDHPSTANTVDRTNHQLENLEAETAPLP
D(2) dopamine receptor (Homo sapiens), sequence (P14416 whole entry): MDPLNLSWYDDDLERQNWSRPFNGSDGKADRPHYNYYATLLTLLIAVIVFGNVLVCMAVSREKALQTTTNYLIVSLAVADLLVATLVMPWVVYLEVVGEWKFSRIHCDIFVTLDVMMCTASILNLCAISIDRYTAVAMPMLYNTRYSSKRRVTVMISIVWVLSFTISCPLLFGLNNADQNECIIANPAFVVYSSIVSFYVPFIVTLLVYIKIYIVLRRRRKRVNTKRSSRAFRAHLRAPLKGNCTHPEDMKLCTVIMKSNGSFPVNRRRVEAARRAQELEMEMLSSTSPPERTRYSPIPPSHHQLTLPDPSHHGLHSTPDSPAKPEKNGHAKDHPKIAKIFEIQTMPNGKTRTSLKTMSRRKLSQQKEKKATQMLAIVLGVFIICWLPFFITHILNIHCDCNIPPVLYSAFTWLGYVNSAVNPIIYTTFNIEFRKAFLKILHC
Histamine H1 receptor (Homo sapiens), sequence (P35367 whole entry): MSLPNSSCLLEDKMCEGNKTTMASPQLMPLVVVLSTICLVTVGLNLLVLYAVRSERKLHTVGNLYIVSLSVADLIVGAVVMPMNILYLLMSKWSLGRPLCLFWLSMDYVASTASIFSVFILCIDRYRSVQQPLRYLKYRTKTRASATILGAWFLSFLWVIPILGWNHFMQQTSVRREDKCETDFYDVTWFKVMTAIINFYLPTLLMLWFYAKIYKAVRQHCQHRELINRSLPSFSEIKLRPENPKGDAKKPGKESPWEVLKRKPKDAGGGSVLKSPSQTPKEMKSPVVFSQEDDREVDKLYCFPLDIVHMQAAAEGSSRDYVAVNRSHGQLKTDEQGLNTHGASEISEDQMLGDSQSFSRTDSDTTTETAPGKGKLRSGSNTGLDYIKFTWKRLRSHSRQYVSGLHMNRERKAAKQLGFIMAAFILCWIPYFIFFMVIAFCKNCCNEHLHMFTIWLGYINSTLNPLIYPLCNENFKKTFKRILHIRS
Sodium-dependent noradrenaline transporter (Homo sapiens), sequence (P23975 whole entry): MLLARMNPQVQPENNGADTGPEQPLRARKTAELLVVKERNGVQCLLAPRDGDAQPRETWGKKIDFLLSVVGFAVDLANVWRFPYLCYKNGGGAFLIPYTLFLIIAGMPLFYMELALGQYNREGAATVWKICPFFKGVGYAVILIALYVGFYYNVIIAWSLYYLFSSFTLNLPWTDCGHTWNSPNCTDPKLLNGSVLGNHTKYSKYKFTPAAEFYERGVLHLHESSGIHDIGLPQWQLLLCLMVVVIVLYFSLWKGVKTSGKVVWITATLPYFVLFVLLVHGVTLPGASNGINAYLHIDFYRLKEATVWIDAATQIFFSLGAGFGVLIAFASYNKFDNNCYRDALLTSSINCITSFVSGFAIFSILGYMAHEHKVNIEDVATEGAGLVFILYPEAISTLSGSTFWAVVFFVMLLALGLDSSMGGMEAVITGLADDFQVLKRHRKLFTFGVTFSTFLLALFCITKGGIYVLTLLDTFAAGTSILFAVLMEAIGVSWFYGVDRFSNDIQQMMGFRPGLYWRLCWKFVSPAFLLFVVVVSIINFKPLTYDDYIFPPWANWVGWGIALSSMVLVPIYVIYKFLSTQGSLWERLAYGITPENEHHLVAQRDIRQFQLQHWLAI
Muscarinic acetylcholine receptor M1 (Homo sapiens), sequence (P11229 whole entry): as the sequence (P11229 whole entry) above

EC50 [1]: 1300 nM (not active) | IC50 [1]: 6000 nM (not active) | EC50 [2]: > 50000 nM (not active)
SMILES: NC1(c2ccc(-c3nc4c(O)ccnn4c3-c3ccccc3)cc2)CCC1

inhibition [3]: 14.8% | inhibition [4]: 38% | inhibition [5]: 39.4% | inhibition [6]: 39.9% | inhibition [7]: 22.6% | inhibition [8]: 37.8% | inhibition [9]: 10.2% | inhibition [10]: 21.5% | inhibition [11]: 30.8% | inhibition [12]: 1.83% | inhibition [13]: -1.31% | inhibition [14]: 12.9% | inhibition [15]: 32.7% | IC50 [16]: 100 nM (active) | inhibition [17]: 6.89% | IC50 [18]: 35 nM (active) | inhibition [19]: 38.9% | inhibition [20]: 8.08% | inhibition [21]: 25.4% | inhibition [22]: 11.2% | IC50 [23]: 35 nM (active) | inhibition [24]: 71.9% | inhibition [25]: 25.7% | inhibition [26]: 16.8% | inhibition [27]: 23.4% | EC50 [1]: 15 nM (active) | IC50 [1]: 2.84 nM (active) | inhibition [28]: 0.95% | IC50 [29]: 1.1 nM (active) | inhibition [30]: 47.5% | inhibition [31]: 17.8% | inhibition [32]: 10.8% | inhibition [33]: -8.97% | Ki ([34]; read-out: Ki): 1450 nM | Ki ([34]; read-out: pKi (converted)): 1350 nM | inhibition [35]: 31.1% | inhibition [36]: 7.35% | IC50 [37]: 141 nM (active) | IC50 [38]: 0.8 nM (active) | inhibition [39]: 20.1% | inhibition [40]: -3.8% | inhibition [41]: 14.6% | inhibition [42]: 9.78% | inhibition (Rattus norvegicus): 40.5% | inhibition [43]: 28.7% | inhibition [44]: 12.4% | IC50 [45]: 35 nM (active) | inhibition [46]: 26.9% | inhibition [47]: 40% | inhibition [48]: -1.55% | IC50 [49]: 5.6 nM (active) | inhibition [50]: 12.2% | IC50 [51]: 0.9 nM (active) | inhibition [52]: 13.4% | EC50 [53]: 30 nM (active) | IC50 [53]: 10.7 nM (active) | inhibition [54]: 11.4%
SMILES: NC(=O)c1ccc2nc(-c3ccc(C4(N)CCC4)cc3)c(-c3ccccc3)n2n1 [BAY-1125976]
